B1: rhtA: chemical exporter from E. coli characterized for homoserine transport; mutant version rhtA(P2S) overexpressed (protein)
chain: MSGSLRKMPVWLPIVILLVAMASIQGGASLAKSLFPLVGAPGVTALRLALGTLILIAFFKPWRLRFAKEQRLPLLFYGVSLGGMNYLFYLSIQTVPLGIAVALEFTGPLAVALFSSRRPVDFVWVVLAVLGLWFLLPLGQDVSHVDLTGCALALGAGACWAIYILSGQRAGAEHGPATVAIGSLIAALIFVPIGALQAGEALWHWSVIPLGLAVAILSTALPYSLEMIALTRLPTRTFGTLMSMEPALAAVSGMIFLGETLTPIQLLALGAIIAASMGSTLTVRKESKIKELDIN

Key:
E. coli ACCase = E. coli ACCase (Escherichia coli, UniProt P0A9Q5+P0ABD5+P0ABD8+P24182); details: FIG. 4; for decrease of the activity of the ACCase enzyme relative to control: salts of 3-HP levels near 0.66M; for decrease of the activity of the ACCase enzyme: salt levels near 0.44M
Chain of E. coli ACCase (P0A9Q5 whole entry): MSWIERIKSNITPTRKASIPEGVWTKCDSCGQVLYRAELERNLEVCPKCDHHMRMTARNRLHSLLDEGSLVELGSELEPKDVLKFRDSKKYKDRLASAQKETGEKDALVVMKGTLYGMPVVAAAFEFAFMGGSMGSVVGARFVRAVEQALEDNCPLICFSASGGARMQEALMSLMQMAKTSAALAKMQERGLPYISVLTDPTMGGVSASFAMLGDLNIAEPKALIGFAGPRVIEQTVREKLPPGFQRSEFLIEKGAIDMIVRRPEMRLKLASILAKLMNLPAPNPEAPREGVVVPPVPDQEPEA
Chain of E. coli ACCase (P0ABD5 whole entry): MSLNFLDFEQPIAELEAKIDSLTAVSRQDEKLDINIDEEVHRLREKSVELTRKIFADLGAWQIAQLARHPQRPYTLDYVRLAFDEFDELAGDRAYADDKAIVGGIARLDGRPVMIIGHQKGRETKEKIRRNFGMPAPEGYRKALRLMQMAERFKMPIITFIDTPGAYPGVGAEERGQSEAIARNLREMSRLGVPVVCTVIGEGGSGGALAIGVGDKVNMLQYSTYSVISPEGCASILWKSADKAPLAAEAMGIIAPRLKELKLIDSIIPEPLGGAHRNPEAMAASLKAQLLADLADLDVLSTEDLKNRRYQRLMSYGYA
Procedure: Levels of greater than 0.66M (60 g/L) are expected to be present for commercially viable commercial production of 3-HP.
Each gene was amplified by PCRs with Pfu Ultra II HS using the manufacturer's instructions, and the PCR products were purified using the Zymo PCR Cleanup kit. Concentrations of products were measured using the Nanodrop spectophotometer. The Gibson Assembly kit (NEB) was used to construct plasmids expressing the ACCase subunit genes as directed by the manufacturer. The effect of NH4-3-HP and NH4Cl on H. elongata ACCase was tested and compared to the E. coli ACCase.

H. elongata ACCase = experiment: Salt inhibition of ACCase enzyme activity (H. elongata ACCase); format: biochemical, Halomonas elongata; details: FIG. 4
Procedure: Concentrations of products were measured using the Nanodrop spectophotometer.

E. coli strains = experiment: Growth inhibition of E. coli strains grown in the presence of 3-HP; format: cell-based; details: levels as low as
3-HP production = experiment: 1 L fermentation, 3HP titer with overexpression of rhtA exporter; format: cell-based, E. coli; details: control plasmid without rhtA, FIG. 7
Procedure: A known chemical exporter from E. coli that has been previously characterized for homoserine transport, rhtA, was evaluated for increased production of 3-HP. A mutant version of the exporter, rhtA(P2S) (SEQ ID NO. 30 nucleic acid, SEQ ID NO. 31 protein) was synthesized behind the PtpiA promoter and inserted into the pTRC-PyibD-MCR plasmid behind a terminator using the Gibson Assembly kit (NEB) according to manufacturer's instructions. The effects of overexpression of rhtA were evaluated in 1 L fermentation compared to the control plasmid without rhtA. […] Construction of plasmids expressing another putative transporter, ydcO (SEQ ID NO. 32 nucleic acid, SEQ ID NO. 33 protein) is carried out in the same manner.

| Molecule | effect of salt on E. coli ACCase (E. coli ACCase) | decrease of the activity of the ACCase enzyme relative to control (E. coli ACCase) | effect of salt on H. elongata ACCase compared to the E. coli ACCase (H. elongata ACCase) | decrease of the activity of the ACCase enzyme (E. coli ACCase) | other results |
| --- | --- | --- | --- | --- | --- |
| N.O=C(O)CCO [NH4-3-HP] | significantly inhibited | approximately 80% | less affected |  |  |
| [Cl-].[Na+] [NaCl] |  |  |  | approximately 80% |  |
| Cl.N [NH4Cl] | significantly inhibited |  | less affected | approximately 80% |  |
| O=C(O)CCO [3-HP, 3-hydroxypropionic acid] |  |  |  |  | 3-HP level at which growth inhibition is demonstrated (E. coli strains): 20 g/L |
| O=C([O-])CCO.[Na+] [Na-3-HP] |  | approximately 80% |  |  |  |
| B1 |  |  |  |  | 3HP titer compared to the control production strain (3-HP production): significant improvement |

Reference: US20150064754A1, “BIOPRODUCTION OF CHEMICALS” (OPX Biotechnologies, Inc., priority 2013, published 2015)
